Laboratory results: ChEMBL document CHEMBL1129207, “Altering the specificity of subtilisin B. Lentus by combining site-directed mutagenesis and chemical modification” (Bioorg Med Chem Lett, 1996)

Legend:
Design in all cases: species or system Lederbergia lenta
[1] = Compound was evaluated for the inhibition of SBL-WT enzyme.
[2] = Compound was evaluated for the inhibition of SBL-M222C-SEtNH3+ enzyme.
[3] = Compound was evaluated for the inhibition of SBL-M222C-SMe enzyme.
[4] = Compound was evaluated for the inhibition of SBL-M222C-SEtSO3- enzyme.
[5] = Compound was evaluated for the inhibition of SBL-M222C enzyme.

Structure (SMILES) | Ki [1] [µM] | Ki [2] [µM] | Ki [3] [µM] | Ki [4] [µM] | Ki [5] [µM]
OB(O)c1cccc(-c2ccccc2)c1 | 327 | 40 | 153 | 25 | 31
OB(O)c1ccc(Cl)cc1Cl | 9.2 | 8.9 | 3.8 | 11 | 18
Nc1cccc(B(O)O)c1 | 150 | 127 | 139 | 176 | 204
OB(O)c1ccc(Br)cc1 | 23 | 10.5 | 11.2 | 15.6 | 23
OB(O)c1ccccc1 [PHENYLBORONIC ACID] | 141 | 108 | 123 | 146 | 155
